Each structure is given as a SMILES string. Counter-ions that a name gives are not always drawn. Like-named read-outs stand apart in the source and are kept apart here. Bounds are passed on as bounds.

The test system of series [1] is Helicoverpa armigera. As to the kind of experiment: Efficacy test against Helicoverpa armigera (cabbage leaf disc). Type of series: in vivo. As to conditions: foliar, 144 h.
Series [2] has as its system Spodoptera litura. As to the kind of experiment: Efficacy test against Spodoptera litura (cabbage leaf disc). Type of series: in vivo. As to conditions: foliar, 144 h. The protocol:
(§1) 5 parts by mass of a compound according to the present invention, 93.6 parts of dimethylformamide, and 1.4 parts of polyoxyethylene alkyl aryl ether were mixed and dissolved to obtain an emulsion (1) containing 5% by mass of the active ingredient.
The emulsion (1) was diluted with water such that the amount of the compound according to the present invention became 125 ppm by mass. A cabbage leaf disc was immersed in the diluted solution for 30 seconds. The cabbage leaf disc was air-dried and then put in a petri dish, followed by leaving five second-instar larvae of Spodoptera litura therein. The petri dish was placed in a thermostatic chamber at a temperature of 25° C. and a humidity of 60%. After six days had passed from leaving the larvae, life or death was assessed and the mortality was calculated. The test was repeated twice.

Series [3] concerns Mythimna separata. As to the kind of experiment: Efficacy test (2) against Mythimna separata (corn leaf disc). Type of series: in vivo. As to conditions: foliar, 144 h, 125 ppm by mass, corn leaf disc immersed 30 seconds, second-instar larvae, 25° C., humidity 60%, after six days. The method, then: as §1
The emulsion (1) was diluted with water such that the amount of the compound according to the present invention became 125 ppm by mass. A corn leaf disc was immersed in the diluted solution for 30 seconds. The corn leaf disc was put in a petri dish, and five second-instar larvae of Mythimna separata were left therein. The petri dish was placed in a thermostatic chamber at a temperature of 25° C. and a humidity of 60%. After six days had passed from leaving the larvae, life or death was assessed and the mortality was calculated. The test was repeated twice.

The subject of series [4] is Plutella xylostella. Put plainly: Efficacy test against Plutella xylostella (cabbage leaf disc). Format: in vivo. The note with it: foliar, 72 h, 125 ppm by mass, cabbage leaf disc immersed 30 seconds, second-instar larvae, 25° C., humidity 60%, after three days.
Where [5] appears, read: 125 ppm by mass, cabbage leaf disc immersed 30 seconds, second-instar larvae, 25° C., humidity 60%, after six days, read-out: mortality.

For `O=C([N-][n+]1ccccc1)c1ccc(NC(=O)c2ccc(C(F)(F)F)cc2)cc1`, the melting point was 287 to 289 °C. Consider `O=C([N-][n+]1ccccc1)c1ccc(Cc2ccc(C(F)(F)F)cc2)cc1` [Compound C1-7, pyridin-1-ium-1-yl(4-(4-(trifluoromethyl)benzyl)benzoyl)amide], for which the melting point lay in the range of 180 to 183 °C.

The molecule `O=C([N-][n+]1ccccc1)c1ccc(/C=N/OCC(F)(F)F)cc1` [Compound C1-5, (E)-pyridin-1-ium-1-yl(4-(((2,2,2-trifluoroethoxy)imino)methyl)benzoyl)amide] registered a melting point of 142 to 143 °C. Consider `O=C([N-][n+]1ccccc1)c1ccc(OC(F)(F)C(F)OC(F)(F)C(F)(F)C(F)(F)F)cc1` (stereo not shown) [Compound C1-11, 1-(4-(1,1,2-trifluoro-2-(perfluoropropoxy)ethoxy)benzamide) pyridinium intramolecular salt], for which the mortality at 125 ppm in series [1] and in series [2] was at least 80% each time.

`O=C([N-][n+]1ccccc1)c1ccc(C2CC2c2ccc(Cl)cc2)cc1` (stereo not shown) [Compound C2-4]: the mortality at 125 ppm in series [3] was at least 80%. Consider `O=C([N-][n+]1ccccc1)c1ccc(OC/C=C\Cl)cc1` [Compound C2-7], for which the melting point was in the range of 101 to 104 °C. `Cc1cccc[n+]1[N-]C(=O)c1ccc(C2CC2c2ccc(Cl)cc2)cc1` (stereo not shown) [Compound C2-3]: the melting point is 140 to 144 °C.

As for `O=C([N-][n+]1ccccc1)c1ccc(/C=C/C(F)(F)F)cc1` [Compound C1-25, 1-(4-((1E)-3,3,3-trifluoro-1-propen-1-yl)benzamide)pyridinium intramolecular salt], the mortality at 125 ppm in series [2] (setting [5]) was at least 80%. `O=C([N-][n+]1ccccc1)c1ccc(C(=O)c2ccc(OC(F)(F)F)cc2)cc1` [Compound C1-30, 1-(4-(4-(trifluoromethoxy)benzoyl)benzamide)pyridinium intramolecular salt]: in series [4], the mortality at 125 ppm was at least 80%. `Cl.O=C(N[n+]1ccccc1)c1ccc(NCc2ccc(OC(F)(F)F)cc2)cc1.[Cl-]` came in with a melting point of 204 to 206 °C.

Turning to `O=C([N-][n+]1ccccc1)c1ccc(C2CC2c2ccc(OC(F)(F)F)cc2)cc1` (stereo not shown) [Compound C2-1], the mortality at 125 ppm in series [1] (setting [5]) and in series [2] (setting [5]) was at least 80% in each case. On to `CC(C)(C)OC(=O)N(Cc1ccc(OC(F)(F)F)cc1)c1ccc(C(=O)[N-][n+]2ccccc2)cc1` [Compound C2-9], for which the melting point fell in the range of 183 to 184 °C. On to `O=C([N-][n+]1ccccc1)c1ccc(/C=C/c2ccc(C(F)(F)F)cc2)cc1` [Compound C1-31, (E)-Pyridin-1-ium-1-yl(4-(4-(trifluoromethyl)styryl)benzoyl)amide], for which the mortality at 125 ppm in series [4], in series [2] (setting [5]) and in series [3] was at least 80% in each case.

As for `O=C([N-][n+]1ccccc1)c1ccc(NS(=O)(=O)c2ccc(C(F)(F)F)cc2)cc1`, the melting point lay within 199 to 203 °C. The same measure, in the same setting: as for `O=C([N-][n+]1ccccc1)c1ccc(C(=O)Nc2ccc(OC(F)(F)F)cc2)cc1` [Compound C1-1, pyridin-1-ium-1-yl(4-((4-(trifluoromethoxy)phenyl)carbamoyl)benzoyl)amide], the figure is 281 to 283 °C. In the case of `O=C([N-][n+]1ccccc1)c1ccc(/C=C/c2ccc(OC(F)(F)F)cc2)cc1` [Compound C2-5], the mortality at 125 ppm in series [4] and in series [2] (setting [5]) was at least 80% throughout.

In turn, `O=C([N-][n+]1ccccc1)c1ccc(Oc2ccc(OC(F)(F)F)cc2)cc1` [Compound C1-8, pyridin-1-ium-1-yl(4-(4-(trifluoromethoxy)phenoxy)benzoyl)amide] returned a melting point of 111 to 113 °C. For the molecule `O=C([N-][n+]1ccccc1)c1ccc(C#Cc2ccc(C(F)(F)F)cc2)cc1` [Compound C1-29, pyridin-1-ium-1-yl(4-((4-(trifluoromethyl)phenyl)ethynyl)benzoyl) amide], the mortality at 125 ppm in series [4], in series [2] (setting [5]) and in series [3] was at least 80% in each case.

`O=C([N-][n+]1ccccc1)c1ccc(SCC(F)(F)C(F)(F)C(F)(F)C(F)(F)C(F)(F)F)cc1` (as salt: salt) [Compound C1-18, 1-(4-((2,2,3,3,4,4,5,5,6,6,6-undecafluorohexyl)thio)benzamide) pyridinium intramolecular salt] had a melting point of 132 to 134 °C. In turn, `O=C([N-][n+]1ccccc1)c1ccc(OCC(F)(F)C(F)(F)C(F)(F)C(F)(F)F)cc1` [Compound C1-19, 1-(4-(2,2,3,3,4,4,5,5,5-nonafluoropentoxy)benzamide)pyridinium intramolecular salt] displayed a mortality at 125 ppm in series [2] of at least 80%.

Take `O=C([N-][n+]1ccccc1)c1ccc(C2CC2c2ccc(C(F)(F)F)cc2)cc1` (stereo not shown) [Compound C2-2]: the mortality at 125 ppm in series [1] (setting [5]) and in series [2] (setting [5]) was at least 80% in each case. With `CC(C)(C)OC(=O)Nc1ccc(C(=O)[N-][n+]2ccccc2)cc1` [Compound C1-57, (4-((tert-butoxycarbonyl)amino)benzoyl)(pyridin-1-ium-1-yl)amide], the melting point lay within 251 to 253 °C.

In the case of `O=C([N-][n+]1ccccc1)c1ccc(OC/C=C/Cl)cc1` [Compound C2-8], the melting point lay in the range of 161 to 162 °C.
